1 compound from US20140030808A1, “Method for Cellular RNA Expression” (BIONTECH AG, priority 2010, published 2014) can be followed below.

SMILES strings stand for the structures.

The subject of assay [1] is Human primary CD4 and CD8 positive T-cells. The assay is classed as cell-based. To be noted: 0.5 μM to 2 μM.
The subject of assay [2] is immature dendritic cells (iDCs). In words: GFP expression by flow cytometry in iDCs electroporated with IVT RNA. The class given is cell-based, human. To be noted: 0.5 μM to 2 μM. The method, then: Human primary CD4 and CD 8 positive T-cells, as well as immature dendritic cells (iDCs) were isolated and electroporated with 5 μg IVT RNA encoding for destabilized GFP. iDCs were coelectroporated with 1 μg IVT RNA encoding for firefly luciferase. The cells were either left untreated or incubated with increasing amounts of C13H8N4OS (PKR-inhibitor) ranging from 0.5 μM to 2 μM as indicated in the panel legends. (A) T-cells and (B) iDCs were harvested at the indicated time points and GFP expression was assessed by flow cytometry. The mean fluorescence intensity (MFI) of the transfected, GFP-positive cell fractions is shown. (C) For luciferase assays, iDCs were plated in duplicates into 96-well-plates at a density of 10000 cells/well. Luciferase activity was measured at the indicated time points. Mean values of the duplicates are given.
(§1) For quantification of d2eGFP and eGFP protein, cells were washed in PBS, fixed using PBS supplemented with 2% formaldehyde and analyzed by flow cytometry on a FACS Canto II flow cytometer (BD Biosciences, Heidelberg, Germany). Gating was performed on living cells and mean fluorescence intensity (MFI) of GFP expressing cell populations was quantified using FlowJo software (Tree Star, Ashland, Oreg., USA). […] Gating was performed on living CD4+ and CD8+ T-cells and GFP expression and MFI of both T-cell subpopulations was determined by flow cytometry. […]
A general note: Flow cytometry measures light scatter and fluorescence of single cells or particles in a stream.

The next assay has as its system MEFs. In words: GFP expression by flow cytometry (MFI) in murine fibroblasts electroporated with IVT RNA. The class given is cell-based. To be noted: 0.5 μM to 2 μM, mouse fibroblasts. The protocol:
(§2) (AB) Primary human foreskin fibroblasts from different donors and suppliers (panel A: BJ fibroblasts; panel B CCD1079Sk) and (C) MEFs were electroporated with 0.5 μg IVT RNA encoding for firefly luciferase and 1.25 μg IVT RNA encoding for enhanced GFP (eGFP). The cells were plated into […] at a density of 250000 cells/well. The cells were either left untreated or incubated with increasing amounts of C13H8N4OS (PKR-inhibitor) ranging from 0.5 μM to 2 μM as indicated in the panel legends. GFP expression was measured by flow cytometry at the indicated time points. The mean fluorescence intensity (MFI) of the transfected GFP-positive cell fractions is shown.
(§3) Transfer of IVT-RNA into cells was performed by electroporation (EP). […]
as §1

In assay [3] the test system is Primary human foreskin fibroblasts (BJ, CCD1079Sk). Nature of the assay: GFP expression by flow cytometry (MFI) in fibroblasts electroporated with IVT RNA. The class given is cell-based. The protocol: as §2, §3, §1
Another assay has as its system CCD1079SK fibroblasts. In words: Induction of pluripotency marker genes (qRT-PCR). The class given is cell-based, human. To be noted: 2 μM, 72 h after electroporation. The protocol:
CCD1079SK fibroblasts were either mock electroporated or electroporated with IVT RNA encoding for firefly luciferase (1 μg), eGFP (1.25 μg), SV40 Large T (1.25 μg), HPV16-E6 (1.25 μg), OCT4, SOX2, KLF4, cMYC, NANOG and LIN28 (2.5 μg OCT4 and equimolar amounts for the others). Electroporations were performed in 2 mm gap cuvettes using optimized parameters for CCDs. The cells were plated into 6-well-plates at a density of 250000 cells/well and either left untreated or incubated with 2 μM C13H8N4OS as indicated. […] GDF3 and hTERT induction was increased by the treatment 72 h after electroporation.
Total cellular RNA was extracted from cells with RNeasy Mini Kit or RNeasy Micro Kit (Qiagen, Hilden, Germany), reverse transcribed with oligo-dT18 using Superscript II (Invitrogen, Carlsbad, Calif., USA), and subjected to real-time quantitative analysis on ABI PRISM 7700 Sequence Detection System instrument and software (Applied Biosystems, Foster City, Calif., USA) using the QuantiTect SYBR Green PCR Kit (Qiagen). Reactions were performed in triplicates with primer amplifying a specific region of the codon optimized
A direct consequence of reprogramming transcription factor expression is the induction of pluripotency marker genes at the transcriptional level. […]
On the technique in general: Quantitative PCR measures a nucleic acid by following its amplification.

Turning to `O=C1Nc2ccc3ncsc3c2/C1=C/c1c[nH]cn1` [C13H8N4OS, 6,8-dihydro-8-(1H-imidazol-5-ylmethylene)-7H-pyrrolo[2,3-g]benzothiazol-7-one], the “GFP expression (MFI)” value was “Neither in T-cells nor in iDCs PKR inhibition led to an increased GFP expression” in assay [1]; “Neither in T-cells nor in iDCs PKR inhibition led to an increased GFP expression” in assay [2]; “dose dependent increase” in the assay with MEFs; “dose dependent increase” in assay [3] (0.5 μM to 2 μM, human fibroblasts). Also, the “stabilization of GFP expression” value in assay [3] (highest concentration used (2 μM)) was “high level of stabilization”. Also, the “GDF3 induction (qRT-PCR)” value with CCD1079SK fibroblasts is “increased”. Besides, the “hTERT induction (qRT-PCR)” value with CCD1079SK fibroblasts was “increased”.
